The record followed here is US6617355B1, “Treating asthma by preventing and/or accomodating S-nitrosothiol breakdown” (The University of Virginia Patent Foundation, priority 1997, dated 2003).

Assay [1] deals with patient with severe asthma. The experiment in a line: Treatment of patients with severe asthma or respiratory failure (Examples I-IX). Type of assay: in vivo, human. The method, then: A child with severe asthma developing symptoms of dyspnea, tachypnea, wheezing and cough is administered a 50 mM solution of L-gamma-glutamyl-(o-carboxy)phenylhydrazide as an aerosol via inhalation at a dosage of 0.01 ml/kg.
A person with severe asthma with symptoms of dyspnea on exertion, cough and prolonged expiration is administered a 10 mM solution of bathocuproine disulfonate via inhalation as an aerosol at a dose of 0.01 ml/kg.
A person with severe asthma with chronic symptoms of night-time cough, dyspnea and wheezing is maintained on inhalations of an aerosol of a 10 mM solution of each of S-nitrosoglutathione and aurothioglucose, at a dosage of 0.01 ml/kg.
A child with severe asthma and impending respiratory failure with symptoms of wheezing, cough and cyanosis is given terbutaline (5 μg/kg/min) by continuous IV-infusion. […] The terbutaline is replaced with an equimolar amount of terbutaline substituted with S-nitrosothiol group.
A person has respiratory failure with symptoms of wheezing, cough and cyanosis.
A person with respiratory failure with symptoms as described in Example V is given inhalation of a 10 mmol solution of S-nitroso-D-cysteine, 0.01 ml/kg.
A severe asthmatic with chronic dyspnea is given 30 mg daily prednisone.
A severe asthmatic is treated with inhalation of 1 mg allopurinol.
A severe asthmatic is treated with inhalation of a 10 mM solution of each of S-nitrosomethylmercaptan and ethacrynic acid, at a dosage of 0.01 ml/kg.

The test system of assay [2] is Guinea-pig tracheal rings. The experiment in a line: Relaxation of methacholine-contracted guinea-pig tracheal rings by S-nitrosoglutathione pre-incubated with or without lung fractions. It is filed as cell-based. The note with it: n=7. The method, then: Guinea-pig tracheal and lung parenchymal tissue were separately homogenized in 1 mM ethylenediaminetetraacetic acid, 50 mM TRIS HC1 buffer, pH 7.4, 10 mg/liter soybean trypsin inhibitor, 10 mg/liter pepstatin, 10 mg/liter chymostatin and 100 mg/liter phenylmethylsulfonyl fluoride at 4° C. and underwent centrifugation (5,000 g; 5 min) and filtration. The supernatant was loaded onto a DEAE cellulose column and eluted with a linear gradient of 0-250 mM NaCl. The S-nitrosoglutathione degrading activity was assayed as NO evolution. The results are depicted in FIG. 1 (fractions causing a net loss of NO are represented by diamonds).
Guinea-pig tracheal rings were suspended in Krebs-Henseleit buffer (pH 7.4, 37 degrees C., equilibrated with 95% oxygen/5% carbon dioxide) and equilibrated under one gram tension. Smooth muscle contraction was monitored using a force transducer. After contraction with 5 μM methacholine, rings were exposed to S-nitrosoglutathione which had been incubated (30 minutes, pH 7.4, 25 degrees C.) (a) in phosphate buffered saline alone, (b) with guinea-pig lung protein fractions having S-nitroglutathione breakdown activity isolated as described in Background Example 2, and (c) with active lung fractions and 100 μM aurothioglucose. […]

Assay [3] relates to patients with mild or moderate asthma. Kind of assay: Treatment of patients with mild or moderate asthma (Examples X-XI). It is filed as in vivo, human. Here is the method:
A child wakes up every night coughing and coughs on exertion. The patient is given inhalations of 0.01 ml/kg of a 10 mM solution of S-nitroso-D-cysteine.

On to `Cc1cc(-c2ccc(S(=O)(=O)O)cc2)c2ccc3c(-c4ccc(S(=O)(=O)O)cc4)cc(C)nc3c2n1` [bathocuproine disulfonate], for which, in assay [1] (Example II: person, severe asthma, 10 mM solution via inhalation as aerosol, 0.01 ml/kg), the asthma symptoms result is given as “symptoms improve”.

As for `Oc1ncnc2[nH]ncc12` [allopurinol], in assay [1] (Example VIII: severe asthmatic, inhalation of 1 mg), the asthma symptoms result is on record as “Symptoms improve”.

On to `OC[C@H]1O[C@H]([S-])[C@H](O)[C@@H](O)[C@@H]1O.[Au+]` [aurothioglucose], for which the “restoration of S-nitrosoglutathione relaxation by inhibitor of breakdown” value in assay [2] (S-nitrosoglutathione incubated with active lung fractions and 100 μM aurothioglucose, p<0.001 at 50 μM) is listed as “partially restored”.

On to `N[C@H](C(=O)O)[C@@H]1CC(Cl)=NO1` [acivicin], for which the asthma symptoms result in assay [3] (Example XI: person, wheezing and coughing three times a year, nebulized 0.01 mmol/kg) is “becomes asymptomatic”; in assay [1] (Example V: person, respiratory failure, parenteral methylprednisone 4 mg/kg and terbutaline 5 μg/kg/min, then nebulized acivicin 0.01 mmol/kg), “symptoms improve”.

`N[C@H](CSN=O)C(=O)O` [S-nitroso-D-cysteine]: the asthma symptoms result in assay [3] (Example X: child, night cough and cough on exertion, inhalations of 0.01 ml/kg of 10 mM solution) was “sleeps through the night and is able to participate in sports without shortness of breath”; in assay [1] (Example VI: person, respiratory failure, inhalation of 10 mmol solution, 0.01 ml/kg), “Improvement occurs”.

`NC(CCC(=O)NNc1ccccc1C(=O)O)C(=O)O` [L-gamma-glutamyl-(o-carboxy)phenylhydrazide]: the asthma symptoms entry in assay [1] (Example I: child, severe asthma, 50 mM solution as aerosol via inhalation, 0.01 ml/kg) is recorded as “symptoms improve”.

Turning to `N[C@@H](CCC(=O)N[C@@H](CSN=O)C(=O)NCC(=O)O)C(=O)O` [S-nitrosoglutathione], the “relaxation of tracheal rings by S-nitrosoglutathione after incubation with active lung fractions” value in assay [2] (rings contracted with 5 μM methacholine, S-nitrosoglutathione incubated 30 minutes, pH 7.4, 25 degrees C with guinea-pig lung protein fractions, p<0.005 for all concentrations >500 nM) is “relaxation was nearly completely inhibited”.

In the case of `CC(C)(C)NCC(O)c1cc(O)cc(O)c1` (stereo not shown) [terbutaline], in assay [1] (Example IV: child, severe asthma, impending respiratory failure, continuous IV-infusion 5 μg/kg/min or equimolar amount), the asthma symptoms entry is “No improvement occurs”.
